Reference: ChEMBL document CHEMBL6087456 (J Med Chem, 2025)
Values after ≈ are worked out from the molar mass of the structure shown. Active and inactive are the calls of the source. The rule behind the calls is not given here.

Columns and labels:
Plasmodium falciparum [1] = experiment: Antiparasitic activity against asexual blood stage Plasmodium falciparum 3D7 incubated for 72 hrs by SYBR Green assay; assay type: functional, organism-based; conditions: 3D7, 72 h
[2] = Kinetic solubility of compound at pH 6.5 measured after 30 mins by nephelometry; assay type: physicochemical; conditions: buffer, pH 6.5, read-out: Kinetic_solubility
[3] = Metabolic stability in human liver microsomes assessed as intrinsic clearance at 0.5 uM incubated for 60 mins in presence of NADPH by tandem quadrupole-Time of Flight MS; assay type: ADME, Microsome; conditions: 1 h
[4] = Cytotoxicity against human HepG2 cells by Cell Titer Glo assay; assay type: toxicity, cell-based
[5] = Cytotoxicity against human Jurkat cells by Cell Titer Glo assay; assay type: toxicity, cell-based
Plasmodium falciparum [6] = experiment: Antiparasitic activity against Plasmodium falciparum 3D7 assessed as lag time before killing at 10 times EC50 pretreated for 120 hrs followed by compound removal and replacement of media without compound measured after 28 days by cell killing assay; assay type: functional
Plasmodium falciparum [7] = experiment: Antiparasitic activity against Plasmodium falciparum 3D7 assessed as parasitic reduction ratio at 10 times EC50 pretreated for 120 hrs followed by compound removal and replacement of media without compound measured after 28 days by cell killing assay; assay type: functional
[8] = Plasma protein binding in human measured for 6 hrs by rapid equilibrium dialysis; assay type: ADME, cell-free
[9] = Drug excretion in Sprague-Dawley rat urine at 1 mg/kg, iv; assay type: ADME, organism-based; conditions: read-out: Drug excretion
[10] = Permeability across apical to basal side in human Caco-2 cells; assay type: ADME, cell-based
Cytochrome P450 1A2 = biological target: T1, Cytochrome P450 1A2 (Homo sapiens, UniProt P05177); experiment: Inhibition of CYP1A2 in human liver microsomes; assay type: ADME, Microsome
T1 sequence (P05177 whole entry): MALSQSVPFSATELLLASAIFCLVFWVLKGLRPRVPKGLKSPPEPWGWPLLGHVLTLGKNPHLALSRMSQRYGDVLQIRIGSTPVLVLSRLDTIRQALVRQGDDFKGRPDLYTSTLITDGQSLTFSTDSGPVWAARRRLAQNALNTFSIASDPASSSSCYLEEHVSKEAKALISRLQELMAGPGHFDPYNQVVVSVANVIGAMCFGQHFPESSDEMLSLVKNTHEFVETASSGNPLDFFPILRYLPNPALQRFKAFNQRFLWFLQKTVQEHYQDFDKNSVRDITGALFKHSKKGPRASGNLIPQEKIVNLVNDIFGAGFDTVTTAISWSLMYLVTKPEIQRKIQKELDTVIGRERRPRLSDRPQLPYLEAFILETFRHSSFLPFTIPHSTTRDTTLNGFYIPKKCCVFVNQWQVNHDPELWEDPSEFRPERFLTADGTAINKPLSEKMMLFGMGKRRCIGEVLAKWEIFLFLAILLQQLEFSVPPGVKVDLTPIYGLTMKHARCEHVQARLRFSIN

Cytochrome P450 2B6 = biological target: T2, Cytochrome P450 2B6 (Homo sapiens, UniProt P20813); experiment: Inhibition of CYP2B6 in human liver microsomes; assay type: ADME, Microsome
T2 sequence (P20813 whole entry): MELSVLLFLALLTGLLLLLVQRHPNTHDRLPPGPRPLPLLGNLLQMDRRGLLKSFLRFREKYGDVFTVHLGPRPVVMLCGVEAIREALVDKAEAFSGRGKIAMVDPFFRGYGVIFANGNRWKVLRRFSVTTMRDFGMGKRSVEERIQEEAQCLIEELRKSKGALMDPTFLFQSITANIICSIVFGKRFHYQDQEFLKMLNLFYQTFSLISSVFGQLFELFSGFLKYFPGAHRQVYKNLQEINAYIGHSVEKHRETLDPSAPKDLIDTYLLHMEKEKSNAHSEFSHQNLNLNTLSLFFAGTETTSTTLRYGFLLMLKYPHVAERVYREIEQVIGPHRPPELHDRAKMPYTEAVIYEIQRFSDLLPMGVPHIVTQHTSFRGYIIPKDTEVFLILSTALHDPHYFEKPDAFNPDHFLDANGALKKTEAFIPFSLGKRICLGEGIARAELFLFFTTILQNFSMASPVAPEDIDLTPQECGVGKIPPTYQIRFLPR

Cytochrome P450 2D6 [11] = biological target: T3, Cytochrome P450 2D6 (Homo sapiens, UniProt P10635); experiment: Inhibition of CYP2D6 in human liver microsomes; assay type: ADME, Microsome
T3 sequence (P10635 whole entry): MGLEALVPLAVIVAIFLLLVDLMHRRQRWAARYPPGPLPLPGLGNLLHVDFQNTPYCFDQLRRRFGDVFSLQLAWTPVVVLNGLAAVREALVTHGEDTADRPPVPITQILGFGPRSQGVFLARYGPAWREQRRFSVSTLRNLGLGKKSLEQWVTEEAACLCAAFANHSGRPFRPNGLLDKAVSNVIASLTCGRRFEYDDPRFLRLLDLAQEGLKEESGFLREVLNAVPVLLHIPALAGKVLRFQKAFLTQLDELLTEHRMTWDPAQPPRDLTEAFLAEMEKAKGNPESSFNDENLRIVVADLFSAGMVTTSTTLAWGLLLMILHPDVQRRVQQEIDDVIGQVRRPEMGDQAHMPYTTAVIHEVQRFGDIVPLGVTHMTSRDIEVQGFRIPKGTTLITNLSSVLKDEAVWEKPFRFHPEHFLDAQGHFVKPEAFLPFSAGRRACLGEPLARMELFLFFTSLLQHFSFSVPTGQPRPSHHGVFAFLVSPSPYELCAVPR

Cytochrome P450 3A4 = Cytochrome P450 3A4 (Homo sapiens, UniProt P08684); experiment: Inhibition of CYP3A4 in human liver microsomes; assay type: ADME, Microsome
Sequence of Cytochrome P450 3A4 (P08684 whole entry): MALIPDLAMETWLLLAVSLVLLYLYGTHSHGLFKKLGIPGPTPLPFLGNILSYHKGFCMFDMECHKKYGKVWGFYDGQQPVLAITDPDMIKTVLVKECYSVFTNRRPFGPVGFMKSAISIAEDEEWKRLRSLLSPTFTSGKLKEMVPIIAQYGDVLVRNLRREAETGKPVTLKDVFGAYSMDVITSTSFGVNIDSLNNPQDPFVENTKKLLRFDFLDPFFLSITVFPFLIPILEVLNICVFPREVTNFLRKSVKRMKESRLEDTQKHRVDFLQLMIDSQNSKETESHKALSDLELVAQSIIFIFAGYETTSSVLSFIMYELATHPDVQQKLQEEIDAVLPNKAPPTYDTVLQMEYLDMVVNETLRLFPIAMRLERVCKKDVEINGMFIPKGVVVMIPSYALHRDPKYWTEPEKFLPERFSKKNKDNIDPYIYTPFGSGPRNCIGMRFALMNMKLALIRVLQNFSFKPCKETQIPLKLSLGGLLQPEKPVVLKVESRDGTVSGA

Cytochrome P450 2D6 [12] = biological target: T3, Cytochrome P450 2D6; experiment: Time-dependent inhibition of CYP2D6 in human liver microsomes; assay type: ADME, Microsome
Cytochrome P450 2C8 = biological target: T4, Cytochrome P450 2C8 (Homo sapiens, UniProt P10632); experiment: Time-dependent inhibition of CYP2C8 in human liver microsomes; assay type: ADME, Microsome
T4 sequence (P10632 whole entry): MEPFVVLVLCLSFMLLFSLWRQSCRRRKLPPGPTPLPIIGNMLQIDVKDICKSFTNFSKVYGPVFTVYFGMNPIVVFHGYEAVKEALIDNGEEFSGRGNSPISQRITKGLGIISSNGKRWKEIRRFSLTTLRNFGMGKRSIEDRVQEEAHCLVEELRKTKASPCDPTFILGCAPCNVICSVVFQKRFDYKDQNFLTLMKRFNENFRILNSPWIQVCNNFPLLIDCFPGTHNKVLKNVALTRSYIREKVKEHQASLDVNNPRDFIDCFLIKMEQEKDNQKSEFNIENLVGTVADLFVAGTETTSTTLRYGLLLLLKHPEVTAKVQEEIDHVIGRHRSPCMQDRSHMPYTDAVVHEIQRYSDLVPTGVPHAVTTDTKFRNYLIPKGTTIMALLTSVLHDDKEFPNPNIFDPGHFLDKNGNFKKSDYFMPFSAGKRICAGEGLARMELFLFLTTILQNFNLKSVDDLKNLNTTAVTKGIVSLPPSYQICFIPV

Cytochrome P450 2C9 = Cytochrome P450 2C9 (Homo sapiens, UniProt P11712); experiment: Time-dependent inhibition of CYP2C9 in human liver microsomes; assay type: ADME, Microsome
Sequence of Cytochrome P450 2C9 (P11712 whole entry): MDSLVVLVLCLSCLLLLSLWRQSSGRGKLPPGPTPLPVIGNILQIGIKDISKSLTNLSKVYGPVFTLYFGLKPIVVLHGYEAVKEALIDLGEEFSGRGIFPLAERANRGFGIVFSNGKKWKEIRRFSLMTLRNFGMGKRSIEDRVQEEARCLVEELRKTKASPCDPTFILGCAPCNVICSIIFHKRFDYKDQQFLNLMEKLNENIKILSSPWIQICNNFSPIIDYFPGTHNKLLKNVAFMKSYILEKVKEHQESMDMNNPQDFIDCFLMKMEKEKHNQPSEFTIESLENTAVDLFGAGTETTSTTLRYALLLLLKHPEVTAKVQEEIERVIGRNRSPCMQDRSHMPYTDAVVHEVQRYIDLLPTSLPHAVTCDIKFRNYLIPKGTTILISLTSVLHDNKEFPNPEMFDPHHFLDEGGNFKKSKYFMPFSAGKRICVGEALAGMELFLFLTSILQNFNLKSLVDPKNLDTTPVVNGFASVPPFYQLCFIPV

[13] = biological target: Voltage-gated inwardly rectifying potassium channel KCNH2 (Homo sapiens, UniProt Q12809); experiment: Inhibition of hERG expressed in CHO cells by whole-cell patch-clamp assay; assay type: toxicity, cell-based
Sequence of Voltage-gated inwardly rectifying potassium channel KCNH2 (Q12809 whole entry): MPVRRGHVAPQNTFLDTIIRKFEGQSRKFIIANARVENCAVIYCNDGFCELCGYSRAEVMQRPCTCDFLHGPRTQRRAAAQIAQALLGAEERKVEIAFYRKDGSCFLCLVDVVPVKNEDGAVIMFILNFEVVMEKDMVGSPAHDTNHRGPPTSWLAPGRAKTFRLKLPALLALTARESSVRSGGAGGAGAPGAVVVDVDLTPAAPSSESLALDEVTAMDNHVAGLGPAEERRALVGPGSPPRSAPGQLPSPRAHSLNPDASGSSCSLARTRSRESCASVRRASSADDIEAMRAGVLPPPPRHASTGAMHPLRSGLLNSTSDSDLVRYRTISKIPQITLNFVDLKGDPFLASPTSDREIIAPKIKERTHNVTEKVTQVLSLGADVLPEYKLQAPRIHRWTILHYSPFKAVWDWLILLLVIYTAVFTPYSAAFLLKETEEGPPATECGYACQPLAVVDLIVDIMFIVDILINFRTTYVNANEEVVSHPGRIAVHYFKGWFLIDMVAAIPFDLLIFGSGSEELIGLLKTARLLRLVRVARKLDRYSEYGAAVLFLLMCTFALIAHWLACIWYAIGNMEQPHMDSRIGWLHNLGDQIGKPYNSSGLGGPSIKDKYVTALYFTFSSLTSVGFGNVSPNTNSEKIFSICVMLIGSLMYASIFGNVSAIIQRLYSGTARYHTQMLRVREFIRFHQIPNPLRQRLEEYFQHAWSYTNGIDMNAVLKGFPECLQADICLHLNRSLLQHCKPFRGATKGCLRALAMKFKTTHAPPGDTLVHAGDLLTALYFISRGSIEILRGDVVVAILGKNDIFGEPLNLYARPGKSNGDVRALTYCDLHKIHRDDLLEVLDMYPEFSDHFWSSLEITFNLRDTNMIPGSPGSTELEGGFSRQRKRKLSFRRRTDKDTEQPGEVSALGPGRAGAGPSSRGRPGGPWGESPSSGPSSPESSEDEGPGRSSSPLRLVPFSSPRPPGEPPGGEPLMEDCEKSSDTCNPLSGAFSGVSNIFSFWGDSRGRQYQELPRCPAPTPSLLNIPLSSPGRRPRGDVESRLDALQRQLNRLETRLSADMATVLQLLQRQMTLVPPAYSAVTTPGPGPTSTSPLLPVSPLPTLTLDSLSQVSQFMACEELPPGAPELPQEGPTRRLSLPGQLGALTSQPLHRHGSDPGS

Plasmodium falciparum [14] = experiment: Antimalarial activity against erythrocyte asexual stage Plasmodium falciparum 3D7 0087/N9 infected in humanized SCID mouse model at 1 to 30 mg/kg administered once daily for 6 days measured on day 9; assay type: functional, organism-based; conditions: dose 1-30 mg/kg, time 6.0 day
[15] = Toxicity in humanized SCID mouse model infected with erythrocyte asexual stage Plasmodium falciparum 3D7 0087/N9 assessed as drug tolerance at 1 to 30 mg/kg administered once daily for 6 days; assay type: organism-based; conditions: in vivo, dose 1-30 mg/kg, time 6 day
Plasmodium falciparum [16] = experiment: Antimalarial activity against erythrocyte asexual stage Plasmodium falciparum 3D7 0087/N9 infected in humanized SCID mouse model assessed as inhibition of maturation of trophozoites to schizonts at first life cycle at 1 to 30 mg/kg administered once daily measured after 48 hrs; assay type: functional, organism-based; conditions: dose 1-30 mg/kg
Plasmodium falciparum [17] = experiment: Prevention of terminal maturation of schizonts in humanized SCID mouse model infected with erythrocyte asexual stage Plasmodium falciparum 3D7 0087/N9 at 1 to 30 mg/kg administered once daily for 6 days; assay type: functional, organism-based; conditions: dose 1-30 mg/kg, time 6.0 day
Plasmodium falciparum [18] = experiment: Antimalarial activity against erythrocyte asexual stage Plasmodium falciparum 3D7 0087/N9 infected in humanized SCID mouse model assessed as elimination of trophozoites at second life cycle at 1 to 30 mg/kg administered once daily measured for 48 to 96 hrs; assay type: functional, organism-based; conditions: dose 1-30 mg/kg, time lower […], time upper […]

Cn1nc2c(=O)n(C3CC3)cnc2c1[C@](O)(c1cnc(C(F)(F)F)c(Cl)c1)C(F)(F)F
EC50 (Plasmodium falciparum [1]): 0.001 µM
solubility kinetic at 0.5 h [2]: 80 µM (≈ 37.4 µg/mL)
intrinsic clearance (CLint) [3]: < 3 µL/min/mg
CC50 [4]: > 20 µM
CC50 [5]: > 20 µM
Time (Plasmodium falciparum [6]): ~26 h
log(activity) (Plasmodium falciparum [7]): 2.9
PPB [8]: 98.9%
dose excreted [9]: < 1%
permeability [10]: Permeable
IC50 (Cytochrome P450 1A2): > 20 µM
IC50 (Cytochrome P450 2B6): > 20 µM
IC50 (Cytochrome P450 2D6 [11]): > 20 µM
IC50 (Cytochrome P450 3A4): > 20 µM
TDI (Cytochrome P450 2D6 [12]): Not_active
TDI (Cytochrome P450 2C8): Not_active
TDI (Cytochrome P450 2C9): Not_active
EC50 [13]: ~50 µM
Activity (Plasmodium falciparum [14]): Active
Activity [15]: Non-toxic
Activity (Plasmodium falciparum [16]): Active
Activity (Plasmodium falciparum [17]): inactive
Activity (Plasmodium falciparum [18]): Active
